Earlier results on one molecule are cited in PMC8305651 (International Journal of Molecular Sciences, 2021).

For the data set the following is noted: cited from earlier work.

With `O=c1cc(-c2ccc(O)c(O)c2)oc2cc(O)cc(O)c12` [luteolin], the bioavailability entry is recorded as “low bioavailability”.
